Measured values: US20240024216A1, “METHODS AND MATERIALS FOR TREATING HAIR LOSS” (The Penn State Research Foundation, priority 2021, published 2024)

How the values were obtained:
[1] = tested on: wound healing mouse skin sections; test: Immunostaining and western blot of day 14 wound tissue markers; format: in vivo, mice
Description: Briefly, immunohistochemical and immunofluorescence analysis were performed on 5 μm thick wound healing mouse skin sections. The sections were deparaffinized and subjected to an antigen retrieval process by using sodium citrate buffer at 95° C. followed by immersed in 0.5% triton X-100. The section slides were blocked using 5% goat serum in 0.1% PBS-T for 1 hour. The following primary antibodies mouse monoclonal [LL002] anti-Cytokeratin14 (catalog No.—ab7800; IF-1:100), rat CD31 antibody (Catalog No.—553370; IF-1:100), mouse S100 antibody (Catalog No.—MA5-12969; IF-1:200), rabbit nerve growth factor receptor—p75-NTR antibody (Catalog No.—AB1554; IF and WB-1:500), Chicken neurofilament Heavy-NFH antibody (Catalog No.—NB300-217; IF-1:500), mouse alpha-smooth muscle actin —α-SMA antibody (Catalog No.—14-9760-82; IF-1:200 and WB-1:500), mouse TGF beta antibody (Catalog No.—27969; IF-1:100 and WB-1:500), rabbit Ki67 antibody (Catalog No.—9129S; IF-1:400), chicken keratin 15 antibody (Catalog No. —833901; IF-1:500), rabbit K17 antibody (gift from Pierre a. coulombe Lab; IF-1:1000), rabbit interleukin-1 beta antibody (Catalog No.—GTX74034; IF-1:100), rat F4/80 antibody (Catalog No.—MCA497GA; IF-1:100), mouse anti-SOX10 antibody (Catalog No.—sc-365692; IF-1:100 and WB-1:200), chicken anti-myelin basic protein antibody (Catalog No.—MBP; IF-1:1000), rabbit vimentin antibody (Catalog No.—10366-1-AP; IF-1:200), rabbit NGF antibody (Catalog No.—MA5-32067; IF-1:100 and WB-1:1000), mouse PGP 9.5 antibody (Catalog No.—PA5-29012; IF-1:200), chicken anti-P-zero myelin protein antibody (Catalog No.—PZO; IF-1:200), and rat substance P antibody (Catalog No. —NB100-65219; IF-1:100) were overnight incubated with 5% BSA in 0.1% PBS-T for IF stain and/or 5% skimmed milk in 0.1% TBS-T for Western blot at 4° C., then incubated with secondary antibodies for 1 hour at room temperature. The ProLong™ Gold Anti-fade Mountant with DAPI (Invitrogen, Caltlog No. P36935) used as nuclear counterstain. The immunofluorescence stained sections were imaged using ZEISS Axio Observer 7—Axiocam 506 mono—Apotome.2 microscope. The image analysis and quantification were formed either using ZEN 2.6 pro (Zeiss) imaging software or ImageJ-1.53e software (National Institutes of Health, USA).
For protein isolation the harvested skin tissue was flash frozen immediately. The frozen skin tissue ground to a fine power using a liquid nitrogen mortar. The harvested cells and/or tissue powder dissolved in RIPA buffer containing Halt™ Phosphatase (Thermo Scientific, Catlog No. 78420,) and Protease Inhibitor Cocktail (Roche complete tablets mini EASYpack, Catlog No. 04694124001). Tissue and cell debris removed by centrifuged at 14000 rpm for 30 minutes at 4° C. The supernatant was collected and the total protein concentration was determined by BCA protein assay (Thermo Scientific™ Pierce™, Catlog No. 23225). The proteins (20-30 μg) of the tissue protein samples were subjected to 12% sodium dodecyl sulfate polyacrylamide gel electrophoresis (Bio-Rad mini-PROTEAN TGX Gels, Catlog No. 4561044) and transferred to polyvinylidene fluoride (PVDF) membranes. After the membranes were blocked with 5% skimmed milk in 1×TBS-T for 1 hour, they were incubated with the appropriate primary antibodies (1:200-1:1000) at 4° C. overnight, then incubated with HRP-conjugated secondary antibodies (1:3000) for 1 hour. Immunoreactivity was then detected using chemiluminescent substrate (Thermo Scientific™ SuperSignal™ West Pico PLUS, Catlog No. 34577). The intensities of the bands were quantified using Gel-imaging software. The quantified band intensity were normalized using GAPDH and expressed either normalized intensity or ratios with respect to saline treated mice.

[2] = tested on: keratinocytes co-cultured with fibroblasts (10:1); test: Co-culture scratch assay, keratinocytes with fibroblasts; format: cell-based, human; conditions: measured at 15 hours; 72% in non-treated
Description: To determine the influence of Schwann cells and fibroblast on keratinocytes migration and proliferation wound healing scratch assay was conducted. The co-culture experiment performed in Keratinocytes to either Schwann cells or fibroblasts in a ratio of 10:1 with same proposition of their respective medium were seeded on 96-well ImageLock microplate for 6 hours and the wells were pre-coated with collagen-I plate. For the drug treatment cells were pretreated with 4-AP prior to coating for 16-18 hours. Next, the wound scratch was created and treated cells with and without 4-AP in medium. Imaged for every hour until 24 hour and analyzed for percent of closure as described above procedure.

[3] = tested on: human foreskin dermal primary fibroblast; test: Scratch wound healing migration assay, primary dermal fibroblasts; format: cell-based
[4] = day 14, vs saline treated controls

Compound: Nc1ccncc1 [4-AP, 4-aminopyridine]
- keratinocyte K10 expression in healed epidermis ([1]; day 14): did not cause any change
- levels of PGP 9.5 compared with uninjured tissue ([1]; day 14): not significantly different
- K17 expressing cells ([1]; day 14, vs control group): more abundant
- inflammatory cells (IL-1β) and macrophages (F4/80) in granulation tissue ([1]; day 14, vs control wounds): less of inflammatory cells and macrophages
- fold increase in Ki-67+ [1, 4]: 2 fold
- fold increase in NF-H axonal counts [1, 4]: 2.5 fold
- fold increase in S100+ cells [1, 4]: 3 fold
- increase in K15+ cells [1, 4]: two fold increase
- SOX10 expression ([1]; day 14, vs saline treated mice): Significantly increased
- fold increase in NGF expression ([1]; day 14, vs saline treated mice): 4 fold
- substance-P expression ([1]; day 14, vs saline treated mice): Significantly increased
- fold increase in K14+ keratinocytes ([1]; day 14, vs saline-treated mice): 2.5 fold
- double positive (S100+, p75-NTR+) SCs ([1]; day 14, vs saline, confirmed by WB for p75-NTR): increased numbers
- K14+ keratinocytes ([1]; day 14 wound bed): 13.72±1.403%
- Ki-67+ in hair follicle bulges and epidermis ([1]; day 14 wound tissue): 21.87±2.763 cells/mm^2
- NF-H axonal counts ([1]; day 14 wound tissue): 194±50.51 count/mm^2
- NGF expression ([1]; day 14 wound tissue): 2429872±375280 integrated density/mm^2
- S100+ cells around nerve bundles ([1]; day 14 wound tissue): 6.483±1.163 % positive cells
- CD31 intensity (blood vessels) ([1]; day 14 wound tissue, vs saline): statistically significant increases
- TGF-β protein expression ([1]; day 14 wound tissue, vs saline): significant increases
- vimentin-positive fibroblasts ([1]; day 14 wound tissue, vs saline): more vimentin-positive fibroblasts
- α-SMA-positive myofibroblasts ([1]; day 14 wound tissue, vs saline): more
- PGP 9.5+ nerve fibres ([1]; fourteen days post wound): 4096938±713297 integrated density/mm^2
- PGP 9.5+ nerve fibres relative to saline treated mice ([1]; fourteen days post wound): twice as abundant
- scratch closure [2]: 93%
- fibroblast migration ([3]; 1 mM 4-AP vs no treatment): unaffected
- vimentin and α-SMA protein expression (fibroblast to myofibroblast conversion) ([3]; 4-AP exposed vs no treatment): increased
